Assay results published in patent EP4548971A1, “1,4-BENZOTHIAZEPINES AND RELATED COMPOUNDS WITH CYCLOPROPANOL GROUPS AS MULTI-TARGETED DRUGS” (Georg-August-Universität Göttingen Stiftung Öffentlichen …, priority 2023, dated 2025).

Tests used:
[1] = tested on: saponin-permeabilized ventricular cardiomyocytes (sp-vCM) from WT mice; assay: Ca2+ wave decay in saponin-permeabilized ventricular cardiomyocytes, WT mice; assay type: cell-based; conditions: 10 µM, result in words
Text: (§1) • Figure 1: Synthesis scheme showing the synthesis of multifunctional compounds with cyclopropanol residues based on 1,4 -benzothiazepines. The respective reaction conditions (a) to (i) are as follows: (a) Jones reagent, aceton; (b) H2SO4, EtOH; (c) EtMgBr, Ti(OiPr)4, EtzO; (d) t-BuMe2SiOSO2CF3, 2,6-lutidine, DCM; (e) Hz, Pd/C, THF; (f) Dess-Martin reagent, DCM; (g) K2CO3, 1,4-dioxane; (h) N2H4*H2O, EtOH; (i) Na(CH3COO)3BH, 1,2-dichloroethane; (j) NaH, DMF; (k) aq. HF (55%), MeCN or 1 M n-Bu4NF in THF or KF, Et3N*HCl, MeOH. m,n = 2-8. • Figure 2: Synthesis scheme showing the synthesis of multifunctional compounds with cyclopropanol residues based on the "open" analogs 1,4 -benzothiazepines (i.e. 3-[(4-methoxyphenyl)oxy]-and 3-[(4-methoxyphenylthio)]propane-1-amine derivatives). […] Values represent the mean ± S.D., *** P < 0.0005, **** P < 0.0001 vs. DMSO by unpaired t test; n = 6 - 28. • Figure 6: Time-lapse fluorescence measurements using TECAN Spark 20M plate reader with HEK293 cells expressing WT RyR2 and R-CEPIA1er indicator. […] Fluorescence ratio F/F0, where F0 - average fluorescence signal for the first 90 seconds, F- average fluorescence signal for the last 100 s, was taken for the calculations. […] Data sets were analyzed by unpaired Student's t-test. n.s. non-significant with P=0.59 for Dan, **, P<0.01 with P=0.003 for S36, and *, P<0.05 with P=0.019 for GM1869; (D, E, F) Relative changes in the decay time tau of Ca2+ transients from spontaneous Ca2+ waves (in control/drug) by Dan (D, 10µM), S36 (E, 10 µM), and GM1869 (F, 10 µM) in cardiomyocytes from WT and RyR2R2474S/+ mice. […] Rise times represent the tau values calculated by a mono-exponential fit of the Ca2+ transients from start to the peak of the signal. Ca2+ transients were recorded in control conditions and every 2 min (S36) or 4 min (GM1869) after drug application. **, P = 0.0065 for S36; ****, P = 0.000019 for GM1869, evaluated by paired Student's t-test. […] Decay times represent the tau values calculated by a mono-exponential fit of the Ca2+ transients from half maximum to baseline of the signal. […]

[2] = tested on: RyR2-R2474S+/- iPSC cardiomyocytes; assay: Electrically induced Ca2+ transients in intact iPSC-derived cardiomyocytes, RyR2-R2474S+/-; assay type: cell-based, human; conditions: estimated from non-linear fit; for IC50: read-out: IC50 values for the rise times of Ca2+ transients
Text: (§2) • Figure 1: Synthesis scheme showing the synthesis of multifunctional compounds with cyclopropanol residues based on 1,4 -benzothiazepines. The respective reaction conditions […] are as follows: (a) Jones reagent, aceton; (b) H2SO4, EtOH; (c) EtMgBr, Ti(OiPr)4, EtzO; (d) t-BuMe2SiOSO2CF3, 2,6-lutidine, DCM; (e) Hz, Pd/C, THF; (f) Dess-Martin reagent, DCM; (g) K2CO3, 1,4-dioxane; (h) N2H4*H2O, EtOH; (i) Na(CH3COO)3BH, 1,2-dichloroethane; (j) NaH, DMF; (k) aq. HF (55%), MeCN or 1 M n-Bu4NF in THF or KF, Et3N*HCl, MeOH. m,n = 2-8. • Figure 2: Synthesis scheme showing the synthesis of multifunctional compounds with cyclopropanol residues based on the "open" analogs 1,4 -benzothiazepines (i.e. 3-[(4-methoxyphenyl)oxy]-and 3-[(4-methoxyphenylthio)]propane-1-amine derivatives). […] Values represent the mean ± S.D., *** P < 0.0005, **** P < 0.0001 vs. DMSO by unpaired t test; n = 6 - 28. • Figure 6: Time-lapse fluorescence measurements using TECAN Spark 20M plate reader with HEK293 cells expressing WT RyR2 and R-CEPIA1er indicator. (a) R-CEPIA1er assay, control (0.1 v/v% DMSO) or 100 µM of compound 14a was injected at 90 seconds (arrow). Fluorescence ratio F/F0, where F0 - average fluorescence signal for the first 90 seconds, F- average fluorescence signal for the last 100 s, was taken for the calculations. (b-d) Dose-response effects of compounds 13 and 14 on [Ca^2+]ER in HEK293-RyR2-R-CEPIA1er cells. […] Data sets were analyzed by unpaired Student's t-test. n.s. non-significant with P=0.59 for Dan, **, P<0.01 with P=0.003 for S36, and *, P<0.05 with P=0.019 for GM1869; (D, E, F) Relative changes in the decay time tau of Ca2+ transients from spontaneous Ca2+ waves (in control/drug) by Dan (D, 10µM), S36 (E, 10 µM), and GM1869 (F, 10 µM) in cardiomyocytes from WT and RyR2R2474S/+ mice. […] Rise times represent the tau values calculated by a mono-exponential fit of the Ca2+ transients from start to the peak of the signal. Ca2+ transients were recorded in control conditions and every 2 min (S36) or 4 min (GM1869) after drug application. **, P = 0.0065 for S36; ****, P = 0.000019 for GM1869, evaluated by paired Student's t-test. […] Decay times represent the tau values calculated by a mono-exponential fit of the Ca2+ transients from half maximum to baseline of the signal. Ca2+ transients were recorded in control conditions and every 2 min (S36) or 4 min (GM1869) after drug application. Data sets were analyzed by paired Student's t-test. n.s., P = 0.14; **, P = 0.0043. […] Data from each experiment were normalized to the first transient recorded. […]

[3] = tested on: RyR2-WT iPSC cardiomyocytes; assay: Electrically induced Ca2+ transients in intact iPSC-derived cardiomyocytes, RyR2-WT; assay type: cell-based, human; conditions: estimated from non-linear fit; for IC50: read-out: IC50 values for the rise times of Ca2+ transients
Text: as §2

[4] = tested on: saponin-permeabilized ventricular cardiomyocytes (sp-vCM) from RyR2R2474S/+ mice; assay: Ca2+ wave decay in saponin-permeabilized ventricular cardiomyocytes, RyR2R2474S/+ mice; assay type: cell-based; conditions: 10 µM, result in words
Text: as §1

[5] = Homo sapiens, iPSC, read-out: EC50 values for the decay times of Ca2+ transients

| SMILES | Relative changes in the decay time tau of Ca2+ transients from spontaneous Ca2+ waves (in control/drug) [1] | EC50 [2, 5] | IC50 ([2]; Homo sapiens, iPSC) | EC50 [3, 5] | IC50 ([3]; Homo sapiens, iPSC) | Relative changes in the decay time tau of Ca2+ transients from spontaneous Ca2+ waves (in control/drug) [4] | EC50 values for the decay times of Ca2+ transients [2] | EC50 values for the decay times of Ca2+ transients [3] |
| --- | --- | --- | --- | --- | --- | --- | --- | --- |
| COc1ccc2c(c1)CN(CCCCN(CCCCC1(O)CC1)CCCCC1(O)CC1)CCS2 [Compound 14a, 1,1'-(((4-(7-Methoxy-2,3-dihydrobenzo[1,4-f]thiazepin-4(5H)-yl)butyl)azanediyl)bis(butane-4,1-diyl))bis(cyclopropan-1-ol)] | significantly below 1 | 0.071 nM | 0.045 nM | 0.097 nM | 0.025 nM | significantly below 1 | – | – |
| COc1ccc2c(c1)CN(C(=O)C(=O)O)CCS2 [Compound S36, reference compound] | not significantly different from 1 | – | 0.04 nM | – | 0.15 nM | not significantly different from 1 | no EC50 values were obtained | no EC50 values were obtained |
